According to patent publication US5326868A, “Certain aryl fused pyrrolopyrimidines; a new class of GABA brain receptor ligands” (Neurogen Corporation, priority 1993, dated 1994):

What was measured:
[1] = system: GABA receptor; details: Tallman et al., 1978; cited from earlier work
[2] = target: GABAa receptor; assay: GABAa receptor activity: displacement of 3H-RO15-1788 (3H-Flumazenil) binding in rat cortical tissue homogenate; details: 3H-RO15-1788 0.5 nM, 30 min at 4° C., pH 7.4, rat cortical tissue
Protocol: The pharmaceutical utility of compounds of this invention are indicated by the following assay for GABAa receptor activity.
Assays are carried out as described in Thomas and Tallman (J. Bio. Chem. 156: 9838-9842, J. Neurosci. 3: 433-440, 1983). Rat cortical tissue is dissected and homogenized in 25 volumes (w/v) of 0.05M Tris HCl buffer (pH 7.4 at 4° C.). The tissue homogenate is centrifuged in the cold (4°) at 20,000×g for 20'. The supernatant is decanted and the pellet is rehomogenized in the same volume of buffer and again centrifuged at 20,000×g. The supernatant is decanted and the pellet is frozen at -20° C. overnight. The pellet is then thawed and rehomogenized in 25 volume (original wt/vol) of buffer and the procedure is carried out twice. The pellet is finally resuspended in 50 volumes (w/vol of 0.05M Tris HCl buffer (pH 7.4 at […]).
Incubations contain […] of radioligand 0.5 nM (^3 H-RO15-1788 [^3 H-Flumazenil] specific activity 80 Ci/mmol), drug or blocker and buffer to a total volume of […]. Incubations are carried for 30 min at 4° C. then are rapidly filtered through GFB filters to separate free and bound ligand. Filters are washed twice with fresh 0.05M Tris HCl buffer (pH 7.4° at 4° C.) and counted in a liquid scintillation counter. […] diazepam is added to some tubes to determine nonspecific binding. Data are collected in triplicate determinations, averaged and % inhibition of total specific binding is calculated. Total Specific Binding=Total - Nonspecific. In some cases, the amounts of unlabeled drugs is varied and total displacement curves of binding are carried out. Data are converted to a form for the calculation of IC50 and Hill Coefficient (nH).

| SMILES | blocking of enhancement of benzodiazepine binding by GABA agonists [1] | IC50 [2] |
| --- | --- | --- |
| CN1CCc2cc3c(cc2[C@@H]1[C@H]1OC(=O)c2c1ccc1c2OCO1)OCO3 [(-) bicuculline] | much less active |  |
| CN1CCc2cc3c(cc2[C@H]1[C@@H]1OC(=O)c2c1ccc1c2OCO1)OCO3 [(+) bicuculline] | blocked |  |
| c1ccc(-c2ncc3[nH]c4ccccc4c3n2)cc1 [Compound 4, 2-Phenyl-5H-indolo[3,2-d]pyrimidine] |  | 20 nM |
| Oc1nc(-c2ccccc2)nc2c1[nH]c1ccccc12 [Compound 2, 4-Hydroxy-2-phenyl-5H-indolo[3,2-d]pyrimidine] |  | 100 nM |
| COc1ccc(-c2ncc3[nH]c4ccccc4c3n2)c(F)c1 [Compound 1, 2-(2-Fluoro-4-methoxyphenyl)-5H-indolo[3,2-d]pyrimidine] |  | 2.5 nM |
